As a reminder, the IC50 is the concentration that inhibits the measured activity by half.

In the experiment the target is T1, human HSL (Homo sapiens, UniProt Q05469).
T1 construct: generate a full length human HSL ORF with a 3′-His6 tag; His6 (C); made in house; host or cells: High 5 insect cells (baculovirus, pFast-BAC)
T1 sequence (Q05469 1-1076): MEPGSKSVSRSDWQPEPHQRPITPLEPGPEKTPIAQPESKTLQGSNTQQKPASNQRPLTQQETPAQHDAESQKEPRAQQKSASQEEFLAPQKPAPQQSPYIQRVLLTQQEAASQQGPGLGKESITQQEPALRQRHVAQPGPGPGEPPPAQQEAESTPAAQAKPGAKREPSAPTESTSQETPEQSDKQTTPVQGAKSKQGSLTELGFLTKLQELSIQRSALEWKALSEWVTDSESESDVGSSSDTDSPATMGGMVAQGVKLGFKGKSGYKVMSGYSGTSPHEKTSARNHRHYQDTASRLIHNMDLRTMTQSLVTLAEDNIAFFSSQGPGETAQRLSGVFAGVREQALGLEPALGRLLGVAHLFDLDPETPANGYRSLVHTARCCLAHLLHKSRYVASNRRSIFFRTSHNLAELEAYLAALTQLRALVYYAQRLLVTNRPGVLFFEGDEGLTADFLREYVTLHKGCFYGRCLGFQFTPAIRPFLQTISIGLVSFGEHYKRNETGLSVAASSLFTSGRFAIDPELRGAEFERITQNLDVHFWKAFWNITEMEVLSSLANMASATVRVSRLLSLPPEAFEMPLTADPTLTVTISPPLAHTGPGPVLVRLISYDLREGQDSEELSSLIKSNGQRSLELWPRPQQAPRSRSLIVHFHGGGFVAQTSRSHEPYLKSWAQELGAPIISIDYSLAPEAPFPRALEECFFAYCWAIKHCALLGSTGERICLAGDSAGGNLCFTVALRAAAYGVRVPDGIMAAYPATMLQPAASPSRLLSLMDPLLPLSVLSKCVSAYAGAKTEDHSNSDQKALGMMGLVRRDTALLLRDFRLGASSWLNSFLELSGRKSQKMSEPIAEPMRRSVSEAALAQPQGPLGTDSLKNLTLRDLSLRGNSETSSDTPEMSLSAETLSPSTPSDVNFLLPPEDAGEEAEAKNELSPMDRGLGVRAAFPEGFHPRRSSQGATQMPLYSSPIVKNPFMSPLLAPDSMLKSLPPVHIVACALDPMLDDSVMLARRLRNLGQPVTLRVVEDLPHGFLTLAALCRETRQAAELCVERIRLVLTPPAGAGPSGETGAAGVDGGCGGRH
In words: Human Hormone-Sensitive Lipase (HSL) enzyme inhibition assay (colorimetric, DMPT substrate). It counts as biochemical. The note with it: read-out: HSL hum IC50. The procedure:
Production of Human Full Length Hormone Sensitive Lipase-His^6
1) Cloning: cDNA was prepared from commercial human brain polyA+ RNA and used as a template in overlapping PCR to generate a full length human HSL ORF with a 3′-His6 tag. This full length insert was cloned into the pFast-BAC vector and the DNA-sequence of several single clones was verified. DNA from a correct full length clone with the 3′His6 tag was used to transform the E. coli strain DH10BAC. Resulting bacmid DNA was used to generate a titered baculovirus stock for protein generation. The sequence of the encoded HSL conforms to Swissprot entry Q05469, with the additional C-terminal His6-tag.
2) Protein purification: Culture: 5.5 L, High 5 cells expressing human full length HSL-His^6, 48 hr., containing 25 μM E-64. Cell count: […], 90% viable.
Cells were thawed. On ice, cells were suspended in Base Buffer containing 10% glycerol, 25 mM Tris-Cl, 300 mM NaCl, 10 mM imidazole, 10 mM 2-mercaptoethanol, 2 μg pepstatin/ml, 2 μg leupeptin/ml, 2 μg antipain/ml, pH 8.0 at 4° C. in a final volume of 475 ml with 3.75×10^7 cells/ml. […] was done at 3×30 sec., Lubrol PX was added to 0.2% final concentration followed by stirring for 15 min. at 4° C. and centrifugation at 25 k×g, 60 min., 4° C. Soluble proteins were mixed with 60 ml of pre-washed and equilibrated Ni-NTA Agarose (Qiagen 30210) followed by tumbling end-over-end, 45 min., 4° C., centrifugation 1000 rpm 5 min and letting resin settle 5 min. Supernatant was removed, the resin washed in the centrifuge vessel using 5 volumes of Base Buffer containing 0.2% Lubrol PX. Centrifugation was done again, then the supernatant discarded. The resin was poured onto a 0.8 μm membrane in a disposable filter unit (Nalge 450-0080), and washed with 5 volumes of Base Buffer containing 0.2% Lubrol PX. It was then washed with 30 volumes of Base Buffer containing 60 mM imidazole pH 7.5 at 4° C. The protein was eluted with 5 volumes of 25 mM Tris-Cl, 300 mM NaCl, 200 mM imidazole, 10 mM 2-mercaptoethanol, pH 7.5 at 4° C. by tumbling resin with buffer end-over-end, 30 min., 4° C. The resin was captured on a 0.2 μm membrane disposable filter unit (Millipore SCGP U02 RE) and the elute collected in the reservoir. The elute was concentrated using a 30 k MWCO centrifugal filter device (Sartorius Vivascience Vivacell 100, VC1022), to 20 ml. It was then dialyzed overnight at 4° C., two times against 2 L of 10% glycerol, 25 mM Tris-Cl, 300 mM NaCl, 0.2 mM EDTA, 0.2 mM DTT, pH 7.5 at 4° C. The protein was filtered using a 0.22 μm disposable filter unit (Millipore SCGP00525). The protein concentration was calculated from absorbance at 280 nm, using 280=0.67 cm-1 mg-1. Yield was 235 mg, total. The protein was stored at −80° C. Human Hormone-Sensitive Lipase (HSL) enzyme inhibition assay:
HSL enzyme activity was measured by a colorimetric assay using 2,3-dimercapto-1-propanol tributyrate (Aldrich, St. Louis, Mo.) as a substrate. Typically, 1.5 mM 2,3-dimercapto-1-propanol tributyrate (DMPT) in 100 mM MOPS, pH 7.2, 0.2 mg/ml fatty acid-free BSA was prepared by sonication at 4° C. to homogenous suspension. Test compounds (2 mM stock in DMSO) were diluted 3 fold in series in DMSO. Compound solutions were diluted 24 fold in 1.5 mM DMPT containing solution and 18 ul per well was added to 384-well microplates (Corning Costar). Twelve microliters per well of human HSL (15 ug/ml) was added and the reaction mixture was incubated at 37° C. for 20 minutes. Six microliters of 12 mM dithio-bis-(2-nitrobenzoic acid) (DTNB) in DMSO plus 1.2% SDS and 0.6% Triton X-100 were added and the mixture was incubated at room temperature for 15 minutes. Product production was monitored by reading absorbance at 405 nm on an Envision Reader (PerkinElmer Life and Analytical Sciences, Shelton, Conn.).
Turning to `CC(C)c1ccc(NC(=O)C2(O)CCN(Cc3ccccc3)CC2)cc1` [Example 1, 1-Benzyl-4-hydroxy-piperidine-4-carboxylic acid (4-isopropyl-phenyl)-amide], the IC50 amounted to 460 nM.

Regarding `CC(C)c1ccc(NC(=O)C2(O)CCN(Cc3ccc(F)cc3)CC2)cc1` [Example 2, 1-(4-Fluoro-benzyl)-4-hydroxy-piperidine-4-carboxylic acid (4-isopropyl-phenyl)-amide], the 50% inhibitory concentration (IC50) was 270 nM.

On to `CC(C)(C)c1ccc(NC(=O)C2(O)CCN(Cc3ccccc3)CC2)cc1` [Example 3, 1-Benzyl-4-hydroxy-piperidine-4-carboxylic acid (4-tert-butyl-phenyl)-amide], for which the IC50 was 390 nM.

`CC(C)c1ccc(NC(=O)C2(O)CCN(C(=O)CC(C)(C)C)CC2)cc1` [Example 4, 1-(3,3-Dimethyl-butyryl)-4-hydroxy-piperidine-4-carboxylic acid (4-isopropyl-phenyl)-amide]: the 50% inhibitory concentration (IC50) was 720 nM.

As to `Cc1ccc(S(=O)(=O)N2CCC(O)(C(=O)Nc3ccc(C(C)C)cc3)CC2)cc1` [Example 5, 4-Hydroxy-1-(toluene-4-sulfonyl)-piperidine-4-carboxylic acid (4-isopropyl-phenyl)-amide], the IC50 was determined as 210 nM.

Turning to `CC(C)c1ccc(NC(=O)C2(O)CCN(C(=O)Nc3ccc(C(F)(F)F)cc3)CC2)cc1` [Example 6, 4-Hydroxy-piperidine-1,4-dicarboxylic acid 4-[(4-isopropyl-phenyl)-amide] 1-[(4-trifluoromethyl-phenyl)-amide]], the 50% inhibitory concentration (IC50) was determined as 210 nM.

For the molecule `CC(C)c1ccc(NC(=O)C2(O)CCN(S(=O)(=O)c3ccccc3Cl)CC2)cc1` [Example 7, 1-(2-Chloro-benzenesulfonyl)-4-hydroxy-piperidine-4-carboxylic acid (4-isopropyl-phenyl)-amide], the IC50 was 90 nM.

For the molecule `COc1ccc(S(=O)(=O)N2CCC(O)(C(=O)Nc3ccc(C(C)C)cc3)CC2)cc1` [Example 8, 4-Hydroxy-1-(4-methoxy-benzenesulfonyl)-piperidine-4-carboxylic acid (4-isopropyl-phenyl)-amide], the IC50 was determined as 200 nM.

Take `CC(C)c1ccc(NC(=O)C2(O)CCN(Cc3ccc(C(F)(F)F)cc3)CC2)cc1` [Example 9, 4-Hydroxy-1-(4-trifluoromethyl-benzyl)-piperidine-4-carboxylic acid (4-isopropyl-phenyl)-amide]: the concentration for half-maximal inhibition (IC50) stood at 450 nM.

For `O=C(Nc1ccc(OC(F)(F)F)cc1)C1(O)CCN(S(=O)(=O)c2ccccc2Cl)CC1` [Example 10, 1-(2-Chloro-benzenesulfonyl)-4-hydroxy-piperidine-4-carboxylic acid (4-trifluoromethoxy-phenyl)-amide], the IC50 amounted to 120 nM.

For `O=C(c1ccc(F)cc1)N1CCC(O)(C(=O)Nc2ccc(OC(F)(F)F)cc2)CC1` [Example 11, 1-(4-Fluoro-benzoyl)-4-hydroxy-piperidine-4-carboxylic acid (4-trifluoromethoxy-phenyl)-amide], the half-maximal inhibitory concentration (IC50) was 550 nM.

Turning to `Cc1ccc(S(=O)(=O)N2CCC(O)(C(=O)Nc3ccc(OC(C)C)cc3)CC2)cc1` [Example 12, 4-Hydroxy-1-(toluene-4-sulfonyl)-piperidine-4-carboxylic acid (4-isopropoxy-phenyl)-amide], the 50% inhibitory concentration (IC50) worked out at 860 nM.

In the case of `CC(C)Oc1ccc(NC(=O)C2(O)CCN(S(=O)(=O)c3ccccc3Cl)CC2)cc1` [Example 13, 1-(2-Chloro-benzenesulfonyl)-4-hydroxy-piperidine-4-carboxylic acid (4-isopropoxy-phenyl)-amide], the half-inhibitory concentration (IC50) turned out to be 190 nM.

For the molecule `CC(C)Oc1ccc(NC(=O)C2(O)CCN(Cc3ccc(OC(F)(F)F)cc3)CC2)cc1` [Example 14, 4-Hydroxy-1-(4-trifluoromethoxy-benzyl)-piperidine-4-carboxylic acid (4-isopropoxy-phenyl)-amide], the concentration for half-maximal inhibition (IC50) amounted to 600 nM.

`CC(C)(C)c1ccc(NC(=O)C2(O)CCN(C(=O)Nc3ccc(C(F)(F)F)cc3)CC2)cc1` [Example 15, 4-Hydroxy-piperidine-1,4-dicarboxylic acid 4-[(4-tert-butyl-phenyl)-amide] 1-[(4-trifluoromethyl-phenyl)-amide]]: the half-maximal inhibitory concentration (IC50) amounted to 410 nM.

Turning to `Cc1ccc(S(=O)(=O)N2CCC(O)(C(=O)Nc3ccc(C(C)(C)C)cc3)CC2)cc1` [Example 16, 4-Hydroxy-1-(toluene-4-sulfonyl)-piperidine-4-carboxylic acid (4-tert-butyl-phenyl)-amide], the IC50 came to 200 nM.

Regarding `CC(C)(C)c1ccc(NC(=O)C2(O)CCN(S(=O)(=O)c3ccccc3Cl)CC2)cc1` [Example 17, 1-(2-Chloro-benzenesulfonyl)-4-hydroxy-piperidine-4-carboxylic acid (4-tert-butyl-phenyl)-amide], the IC50 amounted to 60 nM.

`CC(C)(C)c1ccc(NC(=O)C2(O)CCN(C(=O)c3ccc(F)cc3)CC2)cc1` [Example 18, 1-(4-Fluoro-benzoyl)-4-hydroxy-piperidine-4-carboxylic acid (4-tert-butyl-phenyl)-amide]: the IC50 was 210 nM.

In the case of `COc1ccc(S(=O)(=O)N2CCC(O)(C(=O)Nc3ccc(C(C)(C)C)cc3)CC2)cc1` [Example 19, 4-Hydroxy-1-(4-methoxy-benzenesulfonyl)-piperidine-4-carboxylic acid (4-tert-butyl-phenyl)-amide], the IC50 worked out at 170 nM.

As to `CC(C)(C)c1ccc(NC(=O)C2(O)CCN(Cc3ccc(C(F)(F)F)cc3)CC2)cc1` [Example 20, 4-Hydroxy-1-(4-trifluoromethyl-benzyl)-piperidine-4-carboxylic acid (4-tert-butyl-phenyl)-amide], the IC50 was determined as 320 nM.

The values are drawn from patent publication US8399676B2, “Piperidine derivatives” (Hoffman-La Roche Inc., priority 2009, dated 2013).
